Data taken from patent publication US5952323A, “Carbapenem antibiotic” (Merck & Co., Inc., priority 1998, dated 1999).
Like-named read-outs stand apart in the source and are kept apart here.

Experiments:
[1] = assay type: physicochemical; details: 25° C.
Procedure: The final pH of the solution is shown below. Solution stability of this intravenous formulation was determined at 25° C. with the following results.

[2] = pH of the solution upon dissolution; assay type: physicochemical; details: monosodium salt of compound I
Excerpt: The compositions of the present invention are generally formulated using a carbon dioxide source. Preferred sources of carbon dioxide are carbon dioxide (gas, liquid or solid), carbonates and bicarbonates, and more preferably sodium carbonate and sodium bicarbonate, which can be incorporated into the formulation, such that an appropriate pH, e.g., about 6.2-8.5, is obtained upon dissolution. The native pH of the monosodium salt of compound I is approximately 5.4.
One formulation that is of particular interest is comprised of about 3-6 parts by weight, and preferably about 4.5 parts by weight, of compound I, or the pharmaceutically acceptable salt, stabilized form, prodrug or hydrate thereof, and 1 part by weight of sodium bicarbonate. Preferably the carbapenem is in the form of the monosodium salt. The pH which results upon dissolution of this formulation is approximately 6.5. Formulating the drug in this manner can extend the stability of the product in solution.
Another formulation that is of particular interest is comprised of about 4-10 parts by weight, and preferably about 6.7 parts by weight, of the compound of formula I, or the pharmaceutically acceptable salt, stabilized form, prodrug or hydrate thereof, and 1 part by weight sodium carbonate. Preferably the carbapenem is in the form of the monosodium salt. […]

[3] = test system: dehydropeptidase (DHP); assay: Susceptibility to attack by dehydropeptidase (DHP); assay type: in vitro ADME; details: compared with naturally occurring carbapenems
Excerpt: The compound of formula I is of the broad class known as carbapenems. Naturally occurring carbapenems are susceptible to attack by a renal enzyme known as dehydropeptidase (DHP). This attack or degradation may reduce the efficacy of the carbapenem antibacterial agent. […] However, use of a DHP inhibitor is optional and is contemplated as being included in the present invention. Inhibitors of DHP and heir use with carbapenem antibacterial agents are disclosed in European Patent Applications No. 79102616.4, filed Jul. 24, 1979 (Patent No. 007 614); and No. 82107174.3, filed Aug. 9, 1982 (Publication No. 072 014)!.
The compound of the present invention may, where DHP inhibition is desired or necessary, be combined or used with the appropriate DHP inhibitor as described in the aforesaid patents and published application. The cited European Patent Application defines the procedure for determining DHP susceptibility of the present carbapenems and disclose suitable inhibitors, combination compositions and methods of treatment.

## CC(O)C1C(=O)N2C(C(=O)O)=C(SC3CNC(C(=O)Nc4cccc(C(=O)O)c4)C3)C(C)C12 (stereo not shown) [Compound I]
[1]; 12 mg/mL (marked *)
  final pH: 7.4
  k: 0.004994 h⁻¹
  t 90%: 21.0 h
[1]; 12 mg/mL (marked *), intravenous formulation
  initial pH: 7.0
[1]; 36 mg/mL
  final pH: 7.3
  k: 0.01044 h⁻¹
  t 90%: 7.3 h
[1]; 36 mg/mL, intravenous formulation with sodium bicarbonate 8.0 mg/mL, sodium chloride 4.0 mg/mL
  initial pH: 6.7
[2]
  native pH: approximately 5.4
[3]
  susceptibility to attack by dehydropeptidase (DHP): significantly less subject to such attack
